Assay results taken from PubChem BioAssay (NCI).
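Grown in 96-well plates, cells were treated for 48 hours with each compound at five concentrations. Insufficient inhibition: endpoint recorded as highest concentration tested. GI50 is the concentration that inhibits growth by half. TGI: total growth inhibition.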

test system: NCI-H23 lung; experiment: DTP human tumour cell line panel, 48 h

Structure (SMILES)	GI50	TGI
CCCn1cnc2c(SCc3ccccc3Cl)nc(N)nc21	30 µM	> 100 µM
Cc1ccc(NC(=O)c2cccc(N(C)C)c2)cc1NC(=O)c1ccc(O)cc1	> 61.9 µM	> 100 µM
O=C(N/N=C/c1ccccc1O)c1ccccc1Nc1ccnc(C(F)(F)F)c1	1.33 µM	> 44.9 µM

test system: NCI-H460 lung; experiment: DTP human tumour cell line panel, 48 h

Structure (SMILES)	TGI	GI50
CN1C(=O)C2(Cc3cn(C45CC67SSC(CO)(C(=O)N6C4Nc4ccccc45)N(C)C7=O)c4ccccc34)SSC1(CO)C(=O)N2C (stereo unspecified)	0.778 µM	
CCCn1cnc2c(SCc3ccccc3Cl)nc(N)nc21	26.4 µM	4.2 µM
Cc1ccc(NC(=O)c2cccc(N(C)C)c2)cc1NC(=O)c1ccc(O)cc1	> 100 µM	45.2 µM
O=C(N/N=C/c1ccccc1O)c1ccccc1Nc1ccnc(C(F)(F)F)c1	11.2 µM	0.255 µM

test system: NCI-H522 lung; experiment: DTP human tumour cell line panel, 48 h

Structure (SMILES)	TGI	GI50
CN1C(=O)C2(Cc3cn(C45CC67SSC(CO)(C(=O)N6C4Nc4ccccc45)N(C)C7=O)c4ccccc34)SSC1(CO)C(=O)N2C (stereo unspecified)	0.0137 µM	
CCCn1cnc2c(SCc3ccccc3Cl)nc(N)nc21	71.1 µM	19.4 µM
Cc1ccc(NC(=O)c2cccc(N(C)C)c2)cc1NC(=O)c1ccc(O)cc1	> 88.2 µM	37.1 µM
O=C(N/N=C/c1ccccc1O)c1ccccc1Nc1ccnc(C(F)(F)F)c1	> 58.9 µM	5.74 µM

test system: NCI/ADR-RES ovarian; experiment: DTP human tumour cell line panel, 48 h

Structure (SMILES)	GI50	TGI
CCCn1cnc2c(SCc3ccccc3Cl)nc(N)nc21	14.8 µM	64.1 µM
Cc1ccc(NC(=O)c2cccc(N(C)C)c2)cc1NC(=O)c1ccc(O)cc1	> 72 µM	> 100 µM
O=C(N/N=C/c1ccccc1O)c1ccccc1Nc1ccnc(C(F)(F)F)c1	0.433 µM	30.1 µM

test system: OVCAR-3 ovarian; experiment: DTP human tumour cell line panel, 48 h

Structure (SMILES)	TGI	GI50
CN1C(=O)C2(Cc3cn(C45CC67SSC(CO)(C(=O)N6C4Nc4ccccc45)N(C)C7=O)c4ccccc34)SSC1(CO)C(=O)N2C (stereo unspecified)	0.215 µM	
CCCn1cnc2c(SCc3ccccc3Cl)nc(N)nc21	79.6 µM	20.5 µM
Cc1ccc(NC(=O)c2cccc(N(C)C)c2)cc1NC(=O)c1ccc(O)cc1	> 100 µM	67.3 µM
O=C(N/N=C/c1ccccc1O)c1ccccc1Nc1ccnc(C(F)(F)F)c1	22.6 µM	0.45 µM

test system: OVCAR-4 ovarian; experiment: DTP human tumour cell line panel, 48 h

Structure (SMILES)	TGI	GI50
CN1C(=O)C2(Cc3cn(C45CC67SSC(CO)(C(=O)N6C4Nc4ccccc45)N(C)C7=O)c4ccccc34)SSC1(CO)C(=O)N2C (stereo unspecified)	0.0234 µM	
CCCn1cnc2c(SCc3ccccc3Cl)nc(N)nc21	> 100 µM	28 µM
Cc1ccc(NC(=O)c2cccc(N(C)C)c2)cc1NC(=O)c1ccc(O)cc1	> 100 µM	38.6 µM
O=C(N/N=C/c1ccccc1O)c1ccccc1Nc1ccnc(C(F)(F)F)c1	> 100 µM	0.271 µM

test system: OVCAR-5 ovarian; experiment: DTP human tumour cell line panel, 48 h

Structure (SMILES)	TGI	GI50
CN1C(=O)C2(Cc3cn(C45CC67SSC(CO)(C(=O)N6C4Nc4ccccc45)N(C)C7=O)c4ccccc34)SSC1(CO)C(=O)N2C (stereo unspecified)	0.289 µM	
CCCn1cnc2c(SCc3ccccc3Cl)nc(N)nc21	91.9 µM	25.7 µM
Cc1ccc(NC(=O)c2cccc(N(C)C)c2)cc1NC(=O)c1ccc(O)cc1	> 100 µM	> 82.4 µM
O=C(N/N=C/c1ccccc1O)c1ccccc1Nc1ccnc(C(F)(F)F)c1	> 92.3 µM	4.34 µM

test system: OVCAR-8 ovarian; experiment: DTP human tumour cell line panel, 48 h

Structure (SMILES)	TGI	GI50
CN1C(=O)C2(Cc3cn(C45CC67SSC(CO)(C(=O)N6C4Nc4ccccc45)N(C)C7=O)c4ccccc34)SSC1(CO)C(=O)N2C (stereo unspecified)	0.202 µM	
CCCn1cnc2c(SCc3ccccc3Cl)nc(N)nc21	> 100 µM	15.3 µM
Cc1ccc(NC(=O)c2cccc(N(C)C)c2)cc1NC(=O)c1ccc(O)cc1	> 100 µM	53.2 µM
O=C(N/N=C/c1ccccc1O)c1ccccc1Nc1ccnc(C(F)(F)F)c1	> 37.4 µM	0.711 µM

test system: PC-3 prostate; experiment: DTP human tumour cell line panel, 48 h

Structure (SMILES)	TGI	GI50
CN1C(=O)C2(Cc3cn(C45CC67SSC(CO)(C(=O)N6C4Nc4ccccc45)N(C)C7=O)c4ccccc34)SSC1(CO)C(=O)N2C (stereo unspecified)	0.214 µM	
CCCn1cnc2c(SCc3ccccc3Cl)nc(N)nc21	37.5 µM	6.49 µM
Cc1ccc(NC(=O)c2cccc(N(C)C)c2)cc1NC(=O)c1ccc(O)cc1	> 100 µM	> 61.7 µM
O=C(N/N=C/c1ccccc1O)c1ccccc1Nc1ccnc(C(F)(F)F)c1	10.1 µM	0.295 µM

test system: RPMI-8226 leukemia; experiment: DTP human tumour cell line panel, 48 h

Structure (SMILES)	TGI	GI50
CN1C(=O)C2(Cc3cn(C45CC67SSC(CO)(C(=O)N6C4Nc4ccccc45)N(C)C7=O)c4ccccc34)SSC1(CO)C(=O)N2C (stereo unspecified)	> 100 µM	
CCCn1cnc2c(SCc3ccccc3Cl)nc(N)nc21	28.2 µM	6.28 µM
Cc1ccc(NC(=O)c2cccc(N(C)C)c2)cc1NC(=O)c1ccc(O)cc1	> 100 µM	> 63.1 µM
O=C(N/N=C/c1ccccc1O)c1ccccc1Nc1ccnc(C(F)(F)F)c1	1.64 µM	0.189 µM

test system: RXF 393 renal; experiment: DTP human tumour cell line panel, 48 h

Structure (SMILES)	GI50	TGI
CCCn1cnc2c(SCc3ccccc3Cl)nc(N)nc21	6.16 µM	24.8 µM
Cc1ccc(NC(=O)c2cccc(N(C)C)c2)cc1NC(=O)c1ccc(O)cc1	38 µM	> 66.1 µM
O=C(N/N=C/c1ccccc1O)c1ccccc1Nc1ccnc(C(F)(F)F)c1	1.05 µM	> 40.3 µM

test system: SF-268 CNS; experiment: DTP human tumour cell line panel, 48 h

Structure (SMILES)	TGI	GI50
CN1C(=O)C2(Cc3cn(C45CC67SSC(CO)(C(=O)N6C4Nc4ccccc45)N(C)C7=O)c4ccccc34)SSC1(CO)C(=O)N2C (stereo unspecified)	0.265 µM	
CCCn1cnc2c(SCc3ccccc3Cl)nc(N)nc21	92.7 µM	12.1 µM
Cc1ccc(NC(=O)c2cccc(N(C)C)c2)cc1NC(=O)c1ccc(O)cc1	> 100 µM	44.6 µM
O=C(N/N=C/c1ccccc1O)c1ccccc1Nc1ccnc(C(F)(F)F)c1	> 89.3 µM	0.448 µM

test system: SF-295 CNS; experiment: DTP human tumour cell line panel, 48 h

Structure (SMILES)	TGI	GI50
CN1C(=O)C2(Cc3cn(C45CC67SSC(CO)(C(=O)N6C4Nc4ccccc45)N(C)C7=O)c4ccccc34)SSC1(CO)C(=O)N2C (stereo unspecified)	1.34 µM	
CCCn1cnc2c(SCc3ccccc3Cl)nc(N)nc21	30.4 µM	10.2 µM
Cc1ccc(NC(=O)c2cccc(N(C)C)c2)cc1NC(=O)c1ccc(O)cc1	> 100 µM	37.6 µM
O=C(N/N=C/c1ccccc1O)c1ccccc1Nc1ccnc(C(F)(F)F)c1	27.6 µM	0.573 µM

test system: SF-539 CNS; experiment: DTP human tumour cell line panel, 48 h

Structure (SMILES)	TGI	GI50
CN1C(=O)C2(Cc3cn(C45CC67SSC(CO)(C(=O)N6C4Nc4ccccc45)N(C)C7=O)c4ccccc34)SSC1(CO)C(=O)N2C (stereo unspecified)	0.0738 µM	
CCCn1cnc2c(SCc3ccccc3Cl)nc(N)nc21	44.8 µM	9.81 µM
Cc1ccc(NC(=O)c2cccc(N(C)C)c2)cc1NC(=O)c1ccc(O)cc1	> 100 µM	41 µM
O=C(N/N=C/c1ccccc1O)c1ccccc1Nc1ccnc(C(F)(F)F)c1	11.3 µM	0.545 µM

test system: SK-MEL-2 melanoma; experiment: DTP human tumour cell line panel, 48 h

Structure (SMILES)	TGI
CN1C(=O)C2(Cc3cn(C45CC67SSC(CO)(C(=O)N6C4Nc4ccccc45)N(C)C7=O)c4ccccc34)SSC1(CO)C(=O)N2C (stereo unspecified)	0.288 µM
